Tests used:
Format in all cases: in vivo
[1] = test system: Alopecurus myosuroides; experiment: Test Example 5: herbicidal effect by foliage application, plastic box (symbol J); settings: 320 g/ha, 3 weeks after application
How it was run: (§1)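 After sowing into sterilized diluvial soil and growing two weeks under glass at 25° C. to 30° C., seedlings receive a uniform foliar spray of diluted emulsion. Damage is judged visually three weeks on.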

[2] = test system: Scirpus juncoides; experiment: Test Example 1: herbicidal activity, application before weed generation in submerged conditions (symbol B); settings: application herbicide amount 320 g/ha
How it was run: (§2)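 Weeds are sown into submerged alluvial soil alongside transplanted 2.5-leaf rice, and the compound, as an emulsion diluted to a set rate, is applied onto the water before emergence. Rating on the 0–5 herbicidal-ratio scale follows 3 weeks of greenhouse growth at 25–30 °C.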

[3] = test system: Leptochloa chinensis; experiment: Test Example 3: herbicidal effect by foliage application, Wagner pot (symbol D); settings: application herbicide amount 320 g/ha
How it was run: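 Alluvial soil was flooded to a depth of 0.1–0.5 cm, seeded with the weeds and rice, and kept in a greenhouse at 25–30 °C. After 14 days of growth, the foliage received a small-sprayer application of emulsion diluted to the intended rate; injury was rated at 3 weeks.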

[4] = test system: rapeseed; experiment: Test Example 5: effect on crop by foliage application, plastic box (symbol g); settings: 320 g/ha, 3 weeks after application
How it was run: (§3)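 Crop seed is sown alongside grass and broadleaf weed species in spots in sterilized diluvial soil, then covered to a depth of about 1.5 cm. Plants grow in a greenhouse kept at 25° C. to 30° C.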

[5] = test system: Echinochloa crus-galli var. crus-galli; experiment: Test Example 4: herbicidal effect by soil treatment (symbol H); settings: application herbicide amount 320 g/ha
How it was run: (§4)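 Seeds were sown in sterilized diluvial soil, covered with about 1.5 cm of soil, and the soil surface was sprayed with a water-diluted emulsion of the compound at a predetermined rate. Plants grew in a greenhouse at 25° C. to 30° C.; effects were scored visually 3 weeks after application.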

[6] = test system: Stellaria media; experiment: Test Example 5: herbicidal effect by foliage application, plastic box (symbol P); settings: 320 g/ha, 3 weeks after application
How it was run: as §1

[7] = test system: rapeseed; experiment: Test Example 4: effect on crop by soil treatment (symbol g); settings: application herbicide amount 320 g/ha
How it was run: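 Greenhouse culture at 25° C. to 30° C. followed sowing of seed in spots on sterilized diluvial soil with a soil cover close to 1.5 cm thick.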

[8] = test system: wheat; experiment: Test Example 5: effect on crop by foliage application, plastic box (symbol e); settings: 320 g/ha, 3 weeks after application
How it was run: as §3

[9] = test system: Amaranthus retroflexus; experiment: Test Example 4: herbicidal effect by soil treatment (symbol N); settings: application herbicide amount 320 g/ha
How it was run: as §4

[10] = test system: Lolium multiflorum Lam.; experiment: Test Example 4: herbicidal effect by soil treatment (symbol K); settings: application herbicide amount 320 g/ha
How it was run: as §4

[11] = test system: Monochoria vaginalis; experiment: Test Example 1: herbicidal activity, application before weed generation in submerged conditions (symbol C); settings: application herbicide amount 320 g/ha
How it was run: as §2

[12] = test system: Echinochloa crus-galli var. crus-galli; experiment: Test Example 5: herbicidal effect by foliage application, plastic box (symbol H); settings: 320 g/ha, 3 weeks after application
How it was run: as §1

[13] = test system: Setaria viridis; experiment: Test Example 5: herbicidal effect by foliage application, plastic box (symbol G); settings: 320 g/ha, 3 weeks after application
How it was run: as §1

[14] = test system: Stellaria media; experiment: Test Example 4: herbicidal effect by soil treatment (symbol P); settings: application herbicide amount 320 g/ha
How it was run: as §4

[15] = test system: corn; experiment: Test Example 4: effect on crop by soil treatment (symbol c); settings: application herbicide amount 320 g/ha
How it was run: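 Steps: fill box with sterilized diluvial soil; sow seed spot-like; cover with ~1.5 cm soil; grow in greenhouse (25° C. to 30° C.).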

[16] = test system: Apera spica-venti; experiment: Test Example 4: herbicidal effect by soil treatment (symbol L); settings: application herbicide amount 320 g/ha
How it was run: as §4

[17] = test system: Setaria viridis; experiment: Test Example 4: herbicidal effect by soil treatment (symbol G); settings: application herbicide amount 320 g/ha
How it was run: as §4

## CC(CC1CC(O)=C(c2c(C)cc(C)cc2C)C1=O)=NOc1ccccc1 (centres unmarked) [1-057]
[1]
  J: Alopecurus myosuroides, herbicidal effect grade: 3 (Herbicidal ratio of 40% or higher and lower than 70%)
[2]
  Herbicidal effect grade, B: Scirpus juncoides: 3 (Herbicidal ratio of 40% or higher and lower than 70%)
[3]
  herbicidal effect on D (Leptochloa chinensis), grade 0-5: 3 (Herbicidal ratio of 40% or higher and lower than 70%)
[4]
  g: rapeseed, effect on crop grade: 4 (Herbicidal ratio of 70% or higher and lower than 90%)
[5]
  H (Echinochloa crus-galli var. crus-galli) herbicidal effect grade: 4 (Herbicidal ratio of 70% or higher and lower than 90%)
[6]
  P: Stellaria media, herbicidal effect grade: 0 (Herbicidal ratio of 5% or lower (almost no effect))
[7]
  g (rapeseed) effect on crop grade: 4 (Herbicidal ratio of 70% or higher and lower than 90%)
[8]
  e: wheat, effect on crop grade: 0 (Herbicidal ratio of 5% or lower (almost no effect))
[9]
  N (Amaranthus retroflexus) herbicidal effect grade: 1 (Herbicidal ratio of 5% or higher and lower than 20%)
[10]
  K (Lolium multiflorum Lam.) herbicidal effect grade: 5 (Herbicidal ratio of 90% or more (almost completely withered))
[11]
  Herbicidal effect grade, C: Monochoria vaginalis: 2 (Herbicidal ratio of 20% or higher and lower than 40%)
[12]
  H: Echinochloa crus-galli var. crus-galli, herbicidal effect grade: 4 (Herbicidal ratio of 70% or higher and lower than 90%)
[13]
  G: Setaria viridis, herbicidal effect grade: 3 (Herbicidal ratio of 40% or higher and lower than 70%)
[14]
  P (Stellaria media) herbicidal effect grade: 0 (Herbicidal ratio of 5% or lower (almost no effect))
[15]
  c (corn) effect on crop grade: 0 (Herbicidal ratio of 5% or lower (almost no effect))
[16]
  L (Apera spica-venti) herbicidal effect grade: 4 (Herbicidal ratio of 70% or higher and lower than 90%)
[17]
  G (Setaria viridis) herbicidal effect grade: 4 (Herbicidal ratio of 70% or higher and lower than 90%)

## CC(CC1CC(O)=C(c2c(C)cc(C)cc2C)C1=O)=NO (centres unmarked) [1-058]
[1]
  J: Alopecurus myosuroides, herbicidal effect grade: 5 (Herbicidal ratio of 90% or more (almost completely withered))
[2]
  Herbicidal effect grade, B: Scirpus juncoides: 0 (Herbicidal ratio of 5% or lower (almost no effect))
[3]
  herbicidal effect on D (Leptochloa chinensis), grade 0-5: 5 (Herbicidal ratio of 90% or more (almost completely withered))
[4]
  g: rapeseed, effect on crop grade: 4 (Herbicidal ratio of 70% or higher and lower than 90%)
[5]
  H (Echinochloa crus-galli var. crus-galli) herbicidal effect grade: 5 (Herbicidal ratio of 90% or more (almost completely withered))
[6]
  P: Stellaria media, herbicidal effect grade: 0 (Herbicidal ratio of 5% or lower (almost no effect))
[7]
  g (rapeseed) effect on crop grade: 3 (Herbicidal ratio of 40% or higher and lower than 70%)
[8]
  e: wheat, effect on crop grade: 5 (Herbicidal ratio of 90% or more (almost completely withered))
[9]
  N (Amaranthus retroflexus) herbicidal effect grade: 2 (Herbicidal ratio of 20% or higher and lower than 40%)
[10]
  K (Lolium multiflorum Lam.) herbicidal effect grade: 5 (Herbicidal ratio of 90% or more (almost completely withered))
[11]
  Herbicidal effect grade, C: Monochoria vaginalis: 0 (Herbicidal ratio of 5% or lower (almost no effect))
[12]
  H: Echinochloa crus-galli var. crus-galli, herbicidal effect grade: 5 (Herbicidal ratio of 90% or more (almost completely withered))
[13]
  G: Setaria viridis, herbicidal effect grade: 5 (Herbicidal ratio of 90% or more (almost completely withered))
[14]
  P (Stellaria media) herbicidal effect grade: 0 (Herbicidal ratio of 5% or lower (almost no effect))
[15]
  c (corn) effect on crop grade: 4 (Herbicidal ratio of 70% or higher and lower than 90%)
[16]
  L (Apera spica-venti) herbicidal effect grade: 4 (Herbicidal ratio of 70% or higher and lower than 90%)
[17]
  G (Setaria viridis) herbicidal effect grade: 5 (Herbicidal ratio of 90% or more (almost completely withered))

## CON=C(CC1CC(O)=C(c2c(C)cc(C)cc2C)C1=O)C(C)(C)C (centres unmarked) [1-059]
[1]
  J: Alopecurus myosuroides, herbicidal effect grade: 4 (Herbicidal ratio of 70% or higher and lower than 90%)
[2]
  Herbicidal effect grade, B: Scirpus juncoides: 3 (Herbicidal ratio of 40% or higher and lower than 70%)
[3]
  herbicidal effect on D (Leptochloa chinensis), grade 0-5: 1 (Herbicidal ratio of 5% or higher and lower than 20%)
[4]
  g: rapeseed, effect on crop grade: 3 (Herbicidal ratio of 40% or higher and lower than 70%)
[5]
  H (Echinochloa crus-galli var. crus-galli) herbicidal effect grade: 4 (Herbicidal ratio of 70% or higher and lower than 90%)
[6]
  P: Stellaria media, herbicidal effect grade: 0 (Herbicidal ratio of 5% or lower (almost no effect))
[7]
  g (rapeseed) effect on crop grade: 0 (Herbicidal ratio of 5% or lower (almost no effect))
[8]
  e: wheat, effect on crop grade: 0 (Herbicidal ratio of 5% or lower (almost no effect))
[9]
  N (Amaranthus retroflexus) herbicidal effect grade: 0 (Herbicidal ratio of 5% or lower (almost no effect))
[10]
  K (Lolium multiflorum Lam.) herbicidal effect grade: 5 (Herbicidal ratio of 90% or more (almost completely withered))
[11]
  Herbicidal effect grade, C: Monochoria vaginalis: 2 (Herbicidal ratio of 20% or higher and lower than 40%)
[12]
  H: Echinochloa crus-galli var. crus-galli, herbicidal effect grade: 4 (Herbicidal ratio of 70% or higher and lower than 90%)
[13]
  G: Setaria viridis, herbicidal effect grade: 4 (Herbicidal ratio of 70% or higher and lower than 90%)
[14]
  P (Stellaria media) herbicidal effect grade: 0 (Herbicidal ratio of 5% or lower (almost no effect))
[15]
  c (corn) effect on crop grade: 3 (Herbicidal ratio of 40% or higher and lower than 70%)
[16]
  L (Apera spica-venti) herbicidal effect grade: 5 (Herbicidal ratio of 90% or more (almost completely withered))
[17]
  G (Setaria viridis) herbicidal effect grade: 4 (Herbicidal ratio of 70% or higher and lower than 90%)

## CON=C(C)CC1CC(OC(=O)C(C)Oc2ccccc2)=C(c2c(C)cc(C)cc2C)C1=O (centres unmarked) [1-060]
[1]
  J: Alopecurus myosuroides, herbicidal effect grade: 5 (Herbicidal ratio of 90% or more (almost completely withered))
[2]
  Herbicidal effect grade, B: Scirpus juncoides: 4 (Herbicidal ratio of 70% or higher and lower than 90%)
[3]
  herbicidal effect on D (Leptochloa chinensis), grade 0-5: 5 (Herbicidal ratio of 90% or more (almost completely withered))
[4]
  g: rapeseed, effect on crop grade: 4 (Herbicidal ratio of 70% or higher and lower than 90%)
[5]
  H (Echinochloa crus-galli var. crus-galli) herbicidal effect grade: 5 (Herbicidal ratio of 90% or more (almost completely withered))
[6]
  P: Stellaria media, herbicidal effect grade: 3 (Herbicidal ratio of 40% or higher and lower than 70%)
[7]
  g (rapeseed) effect on crop grade: 3 (Herbicidal ratio of 40% or higher and lower than 70%)
[8]
  e: wheat, effect on crop grade: 5 (Herbicidal ratio of 90% or more (almost completely withered))
[9]
  N (Amaranthus retroflexus) herbicidal effect grade: 5 (Herbicidal ratio of 90% or more (almost completely withered))
[10]
  K (Lolium multiflorum Lam.) herbicidal effect grade: 5 (Herbicidal ratio of 90% or more (almost completely withered))
[11]
  Herbicidal effect grade, C: Monochoria vaginalis: 3 (Herbicidal ratio of 40% or higher and lower than 70%)
[12]
  H: Echinochloa crus-galli var. crus-galli, herbicidal effect grade: 5 (Herbicidal ratio of 90% or more (almost completely withered))
[13]
  G: Setaria viridis, herbicidal effect grade: 5 (Herbicidal ratio of 90% or more (almost completely withered))
[14]
  P (Stellaria media) herbicidal effect grade: 0 (Herbicidal ratio of 5% or lower (almost no effect))
[15]
  c (corn) effect on crop grade: 4 (Herbicidal ratio of 70% or higher and lower than 90%)
[16]
  L (Apera spica-venti) herbicidal effect grade: 5 (Herbicidal ratio of 90% or more (almost completely withered))
[17]
  G (Setaria viridis) herbicidal effect grade: 5 (Herbicidal ratio of 90% or more (almost completely withered))
